Data reported in patent US10456434B2, “Extracts obtained from cell line cultures from plants belonging to the Oleaceae family (e.g. Syringa vulgaris), their preparation and use” (CRODA ITALIANA S. P. A., priority 2005, dated 2019).

Experiment: Hydroxyl radical scavenger activity (Fenton reaction, luminol chemiluminescence)
Format: biochemical
Settings: mean of 6 independent assays
From the text: Syringa vulgaris Extracts 1 and 2, prepared as described in examples 1 and 2, have been used to assess in vitro antioxidant action with specific oxygen radical generating systems such as the superoxide anion (O2^−), the hydroxyl radical (HO), the peroxynitrite radical (ONOO^−) and the inhibition of lipid peroxidation. The superoxide anion has been measured by a chemiluminescent assay based on the hypoxanthine (HPX)/xanthine oxidase (XOD) reaction using the Lumimax Superoxide Anion Detection Kit (Stratagene, La Jolla, Calif., USA) and following the manufacturer's instructions. Hydroxyl radical scavenger activity has been measured by means of the Fenton reaction for the production of hydroxyl radicals and chemiluminescent dosage (using a Victor^3 chemiluminometer, Wallac, Finland) with luminol. Peroxynitrite ions have been determined by means of dosage with a spontaneous generator of peroxynitrites (3-morpholinosidnonimine hydrochloride; SIN-1) and a stable reagent for the nitroxyl ions (2-(4-carboxyphenyl)-4,4,5,5-tetramethylimidazoline-1-oxyl-3-oxide potassium salt PTIO spin trap) then dosed by means of electron spin resonance (ESR) using a. Nippon Denshi JES-FR30. […].
Extract 1 and Extract 2 listed in Table are derived from Syringa vulgaris cell cultures. In said extracts, verbascoside is present at 0.82% and 35% by weight respectively. […]

## C[C@@H]1O[C@@H](O[C@@H]2[C@@H](O)[C@H](OCCc3ccc(O)c(O)c3)O[C@H](CO)[C@H]2OC(=O)/C=C/c2ccc(O)c(O)c2)[C@H](O)[C@H](O)[C@H]1O [Verbascoside, b-(3,4-dihydroxyphenyl)-ethyl-O-α-L-ramnopyranosyl (1″-3′)-b-D-(4′-O-caffeoil)-glucopyranoside]
  Hydroxyl radial (IC50): 2.2 µg/mL
